Columns and labels:
Format in all cases: cell-based
[1] = tested on: Bmi1 expression in mouse embryonic fibroblasts; test: Bmi1 expression by treatment with Shh or Shh analog (RT-PCR of downstream genes) under neural stem cell-culturing conditions; details: for expression of Gli1 and Bmi1 (RT-PCR) / expression of the Bmi1 target genes p16^Ink4a and p19^Arf (RT-PCR): DMEM/F12+B27+N2+bFGF+EGF; for Sox2 expression level: culture condition for neural stem cells
Experimental: Mouse embryonic fibroblasts were employed to generate embryonic stem cell-like cells. Embryos were taken from CF1 strain mice on embryonic day 13.5. Cells were cultured in DMEM (high glucose, w/o sodium pyruvate) supplemented with 10% FBS (Fetal bovine serum), 0.1 mM non-essential amino acid, 1% penicillin/streptomycin and 0.1 mM β-mercaptoethanol in tissue culture flasks, after which fibroblasts at the 3rd passage were seeded at a density of 2×10^5 cells/well into 6-well plates.
(§1) The fibroblasts prepared in Example 1 were examined for Bmi1 expression when they were treated with Shh or an analog thereof, such as oxysterol or purmorphamine. FIGS. 9A, 14A and 22A are RT-PCR results showing the effect of Shh (Sonic hedgehog), known as an upstream regulator of Bmi1, or its analogs on the expression of genes downstream thereof.

[2] = tested on: mouse embryonic fibroblasts; test: Reprogramming of treated fibroblasts into neural stem cell-like cells (morphology, AP staining, immunochemistry); details: neural stem cell-culturing conditions, immunochemistry for SSEA1, Nestin, Sox2
Experimental: as §1
The induced neural stem cell-like cells were positively analyzed by AP staining and immunochemistry for SSEA1, Nestin and Sox2 (FIGS. 9C, 14C and 22C).

[3] = tested on: mouse embryonic fibroblasts; test: Generation of iPS cells by retroviral Oct4 introduction during treatment with Shh or its analog, then embryonic stem cell culture conditions; details: Oct4 retrovirus three times at 16 hr intervals, treatment for 72 hrs, reprogramming process for 10-14 days
[4] = tested on: adult mouse embryonic fibroblasts; test: Establishment of iPS cells (OO-iPS-TTF #1, 2) by Oct4 introduction during treatment with oxysterol; details: oxysterol 0.1 μM and 0.5 μM with Oct4 introduction
Source text: The reprogramming method established with mouse embryonic fibroblasts was applied to adult mouse embryonic fibroblasts. […] 00-iPS-TTF #1 and 2 were positively stained with AP and found to express SSEA1, Oct4, Sox2, and Nanog as measured by immunochemical staining assays (FIG. 19A).

[5] = 0.5 μM or 1 μM of purmorphamine
[6] = 0.1 μM and 0.5 μM of hydroxycholesterol

## c1ccc2c(Oc3nc(Nc4ccc(N5CCOCC5)cc4)c4ncn(C5CCCCC5)c4n3)cccc2c1 [purmorphamine, 2-(1-Naphthoxy)-6-(4-morpholinoanilino)-9-cyclohexylpurine]
[1]; [5]
  expression of Gli1 and Bmi1 (RT-PCR): upregulation
  expression of the Bmi1 target genes p16^Ink4a and p19^Arf (RT-PCR): downregulation
[1]
  Sox2 expression level: increase
[2]
  morphology and neural stem cell markers of the treated cells: morphology similar to that of neural stem cells and express nestin and sox2
[3]
  appearance of ES cell-like colonies: colonies appeared with the same morphology as ES cells

## C[C@H](CCCC(C)(C)O)[C@H]1CC[C@H]2[C@@H]3CC=C4C[C@@H](O)CC[C@]4(C)[C@H]3CC[C@]12C [hydroxycholesterol, 25-hydroxycholesterol]
[1]; [6]
  expression of Gli1 and Bmi1 (RT-PCR): upregulation
  expression of the Bmi1 target genes p16^Ink4a and p19^Arf (RT-PCR): downregulation
[1]
  Sox2 expression level: increase
[2]
  morphology and neural stem cell markers of the treated cells: morphology similar to that of neural stem cells and express nestin and sox2
[3]
  appearance of ES cell-like colonies: colonies appeared with the same morphology as ES cells
[4]
  derivation of embryonic stem cell-like cells from adult fibroblasts: allowed the derivation of embryonic stem cell-like cells

Source: US8772031B2, “Composition for reprogramming somatic cells to generate induced pluripotent stem cells, comprising Oct4 in combination with Bmi1 or its upstream regulator, and method for generating induced pluripotent stem cells using the same” (Korea University Research and Business Foundation, priority 2009, dated 2014)
